In general, MIC refers to the lowest concentration found to suppress growth. Higher therefore signals a less susceptible organism.

This is an account of results in DBAASP.

What all share (assay): ≥ marks a high value that may be exact or a test limit, other limits are often not marked, values filed in µg/mL are converted to µM
Experiment [1] relates to Rhizopus stolonifer CECT 2344.
The subject of experiment [2] is Fusarium oxysporum f. sp. lycopersici ATCC 201829.
In experiment [3] the test system is Aspergillus niger CECT 2694.
Experiment [4] has as its system Penicillium expansum EPS 26.
In experiment [5] the test system is Escherichia coli ATCC 25922.
Experiment [6] relates to Staphylococcus aureus ATCC 25923.
The subject of experiment [7] is Mycobacterium tuberculosis.
In experiment [8] the test system is Mycobacterium tuberculosis H37Rv.
In experiment [9] the test system is Bacillus subtilis DSM 347.
For experiment [10], the system named is Escherichia coli DH5alpha.
The test system of experiment [11] is Staphylococcus aureus ATCC 33591.
For experiment [12], the system named is Staphylococcus aureus ATCC 700699.
Experiment [13] has as its system Klebsiella pneumoniae ATCC 700603.
Experiment [14] has as its system Staphylococcus aureus ATCC 29213.
Experiment [15] concerns Pseudomonas aeruginosa ATCC 27853.
The subject of experiment [16] is Micrococcus luteus NBRC 12708.
In a further experiment the test system is Micrococcus luteus.
In experiment [17] the test system is Escherichia coli NBRC 14237.
Experiment [18] concerns Pseudomonas aeruginosa NBRC 12582.
A further experiment relates to Saccharomyces cerevisiae.
Experiment [19] deals with Staphylococcus aureus NBRC 12732.
For experiment [20], the system named is Pseudomonas aeruginosa ATCC 15692.
The subject of experiment [21] is Escherichia coli KCTC 1682.
The subject of experiment [22] is Pseudomonas aeruginosa KCTC 2004.
In experiment [23] the test system is Pseudomonas aeruginosa KCTC 2513.
For experiment [24], the system named is Salmonella typhimurium KCTC 1926.
Experiment [25] relates to Escherichia coli KCTC 2571.
Experiment [26] relates to Staphylococcus aureus KCTC 3881.
In experiment [27] the test system is Staphylococcus epidermidis KCTC 1917.
Experiment [28] deals with Staphylococcus aureus KCTC 1916.
Experiment [29] relates to Bacillus subtilis KCTC 1022.
The subject of experiment [30] is Bacillus subtilis KCTC 1021.
The subject of experiment [31] is Staphylococcus aureus KCTC 1621.
Experiment [32] has as its system Bacillus subtilis KCTC 3068.
The subject of experiment [33] is Pseudomonas aeruginosa KCTC 1637.
For experiment [34], the system named is Escherichia coli KCTC 2593.

SMILES strings stand for the structures. Values after ≈ are worked out from the molar mass of the structure shown. Values joined by “and” are separate entries in the source; they are usually repeats but may differ in a detail not shown here. Equal entries are not always repeated.

Consider `CC[C@H](C)[C@H](NC(=O)[C@H](CCCCN)NC(=O)[C@H](CCCCN)NC(=O)[C@H](Cc1ccccc1)NC(=O)[C@H](CC(C)C)NC(=O)[C@H](CCCCN)NC(=O)[C@@H](N)Cc1ccccc1)C(=O)N[C@@H](CC(C)C)C(=O)N[C@@H](CCCCN)C(=O)N[C@H](C(=O)N[C@@H](CC(C)C)C(N)=O)C(C)C` [FKLFKKILKVL], for which the MIC in experiment [1] was ≥ 70.7 µM; in [2], 1.73 µM (≈ 2.38 µg/mL); in [3] it was 22.4 µM (≈ 30.8 µg/mL); in experiment [4], ≥ 35.4 µM.

Take `CC[C@H](C)[C@H](NC(=O)[C@H](CC(C)C)NC(=O)[C@H](CCCCN)NC(=O)[C@H](CC(C)C)NC(=O)[C@H](C)NC(=O)CNC(=O)[C@H](CCCCN)NC(=O)[C@H](C)NC(=O)[C@H](CC(C)C)NC(=O)[C@H](C)NC(=O)CNC(=O)[C@H](Cc1c[nH]c2ccccc12)NC(=O)[C@@H](N)Cc1ccccc1)C(=O)NCC(=O)N1CCC[C@H]1C(=O)NCC(=O)N[C@@H](CO)C(=O)N[C@@H](CC(C)C)C(=O)N[C@@H](Cc1ccccc1)C(=O)N[C@@H](CO)C(=O)N[C@@H](CO)C(=O)N[C@@H](Cc1ccccc1)C(=O)N[C@@H](CO)C(=O)N[C@@H](CCCCN)C(=O)N[C@@H](CCCCN)C(=O)N[C@@H](CC(=O)O)C(=O)O` [FWGALAKGALKLIGPGSLFSSFSKKD]: the MIC in [5] was 12.5 µM and 25 µM; in experiment [6] it was 12.5 µM and 25 µM; in experiment [7], 17.6 µM (≈ 48.1 µg/mL); in experiment [8], 29.4 µM (≈ 80.1 µg/mL).

On to `CC[C@H](C)[C@H](NC(=O)CN)C(=O)NCC(=O)N[C@@H](CCCCN)C(=O)N[C@@H](Cc1ccccc1)C(=O)N[C@H](C(=O)N[C@@H](Cc1cnc[nH]1)C(=O)N[C@@H](C)C(=O)N[C@H](C(=O)N[C@@H](CCCCN)C(=O)N[C@@H](CCCCN)C(=O)N[C@@H](Cc1c[nH]c2ccccc12)C(=O)NCC(=O)N[C@@H](CCCCN)C(=O)N[C@H](C(=O)N[C@@H](Cc1ccccc1)C(=O)N[C@H](C(=O)NCC(=O)N[C@@H](CCC(=O)O)C(=O)N[C@H](C(=O)N[C@@H](C)C(=O)N[C@@H](CCCCN)C(=O)N[C@@H](CO)C(N)=O)[C@@H](C)CC)[C@@H](C)CC)[C@@H](C)O)C(C)C)[C@@H](C)CC` [GIGKFIHAVKKWGKTFIGEIAKS], for which the MIC was 1.6 µM (≈ 4.02 µg/mL) in experiment [9] and 0.8 µM (≈ 2.01 µg/mL) in experiment [10].

For `CC[C@H](C)[C@H](NC(=O)[C@H](CC(=O)O)NC(=O)[C@H](CCCCN)NC(=O)[C@H](C)NC(=O)[C@H](C)NC(=O)CNC(=O)[C@H](CCCCN)NC(=O)[C@H](CC(C)C)NC(=O)[C@H](C)NC(=O)[C@H](CC(=O)O)NC(=O)[C@@H](NC(=O)[C@@H](NC(=O)CN)C(C)C)C(C)C)C(=O)N[C@@H](C)C(=O)NCC(=O)N[C@@H](Cc1cnc[nH]1)C(=O)N[C@@H](CC(C)C)C(=O)N[C@@H](C)C(=O)N[C@@H](CO)C(=O)N[C@@H](CCCCN)C(=O)N[C@H](C(=O)N[C@@H](CCSC)C(=O)N[C@@H](CC(N)=O)C(=O)N[C@@H](CCCCN)C(=O)N[C@@H](CC(C)C)C(N)=O)C(C)C` [GVVDALKGAAKDIAGHLASKVMNKL], the MIC is ≥ 100 µM in experiment [11]; > 100 µM in [5]; ≥ 100 µM in [12]; > 100 µM in [13]; > 100 µM in [14]; > 100 µM in experiment [15].

As for `CC[C@H](C)[C@H](NC(=O)[C@H](CC(=O)O)NC(=O)[C@H](CCCCN)NC(=O)[C@H](C)NC(=O)[C@H](C)NC(=O)CNC(=O)[C@H](CCCCN)NC(=O)[C@H](CC(C)C)NC(=O)[C@@H](NC(=O)[C@H](CC(=O)O)NC(=O)[C@@H](NC(=O)[C@@H](NC(=O)CN)C(C)C)C(C)C)[C@@H](C)CC)C(=O)N[C@@H](CC(C)C)C(=O)NCC(=O)N[C@@H](Cc1cnc[nH]1)C(=O)N[C@@H](CC(C)C)C(=O)N[C@@H](C)C(=O)N[C@@H](CO)C(=O)N[C@@H](CCCCN)C(=O)N[C@H](C(=O)N[C@@H](CCSC)C(=O)N[C@@H](CC(N)=O)C(=O)N[C@@H](CCCCN)C(=O)N[C@@H](CC(C)C)C(N)=O)C(C)C` [GVVDILKGAAKDILGHLASKVMNKL], the MIC was 25 µM (≈ 64.8 µg/mL) in experiment [11]; 6.25 µM (≈ 16.2 µg/mL) in experiment [5]; ≥ 50 µM in experiment [12]; 25 µM (≈ 64.8 µg/mL) in [13]; 100 µM (≈ 259 µg/mL) in experiment [14]; 50 µM (≈ 130 µg/mL) in experiment [15].

As for `CC(C)C[C@H](NC(=O)[C@H](CC(C)C)NC(=O)[C@H](CC(N)=O)NC(=O)[C@H](CO)NC(=O)CNC(=O)[C@@H](NC(=O)[C@H](CCCCN)NC(=O)[C@H](CC(C)C)NC(=O)CNC(=O)[C@@H](NC(=O)[C@H](CCCCN)NC(=O)[C@H](CC(C)C)NC(=O)[C@H](CC(C)C)NC(=O)[C@H](CO)NC(=O)CNC(=O)[C@H](CC(C)C)NC(=O)[C@H](CC(C)C)NC(=O)[C@@H](N)CC(N)=O)[C@@H](C)O)C(C)C)C(N)=O` [NLLGSLLKTGLKVGSNLL], the MIC was ≥ 50 µM in experiment [16]; 2 µM (≈ 3.68 µg/mL) against Micrococcus luteus; 128 µM (≈ 235 µg/mL) in [5]; 32 µM (≈ 58.9 µg/mL) in experiment [6]; 12.5 µM (≈ 23 µg/mL) in [17]; ≥ 50 µM in experiment [18]. In addition, the MIC against Saccharomyces cerevisiae is ≥ 64 µM; in [19], 12.5 µM (≈ 23 µg/mL); in [20] it was ≥ 256 µM.

Take `CC[C@H](C)[C@H](NC(=O)CNC(=O)[C@H](CCCN=C(N)N)NC(=O)[C@H](Cc1ccccc1)NC(=O)[C@@H](NC(=O)[C@H](Cc1cnc[nH]1)NC(=O)[C@H](Cc1cnc[nH]1)NC(=O)[C@H](Cc1ccccc1)NC(=O)[C@@H](N)Cc1c[nH]c2ccccc12)[C@@H](C)CC)C(=O)N[C@H](C(=O)N[C@@H](Cc1cnc[nH]1)C(=O)N[C@H](C(=O)NCC(=O)N[C@@H](CCCCN)C(=O)N[C@H](C(=O)N[C@H](C(=O)N[C@@H](Cc1cnc[nH]1)C(=O)N[C@@H](CCCN=C(N)N)C(=O)N[C@@H](CC(C)C)C(=O)N[C@H](C(=O)N[C@H](C(=O)NCC(=O)O)[C@@H](C)O)C(C)C)[C@@H](C)CC)[C@@H](C)O)C(C)C)C(C)C` [WFHHIFRGIVHVGKTIHRLVTG]: the MIC was 2 µM (≈ 5.22 µg/mL) in experiment [21]; 4 µM (≈ 10.4 µg/mL) in [22]; 4 µM (≈ 10.4 µg/mL) in experiment [23]; 2 µM (≈ 5.22 µg/mL) in experiment [24]; 2 µM (≈ 5.22 µg/mL) in experiment [25]; 2 µM (≈ 5.22 µg/mL) in experiment [26]. Moreover, the MIC in experiment [27], in [28], in experiment [29], in experiment [30], in [31] and in experiment [32] was 2 µM (≈ 5.22 µg/mL) in each case. Also, the MIC in experiment [33] was found to be 4 µM (≈ 10.4 µg/mL); in experiment [34], 2 µM (≈ 5.22 µg/mL).
